# According to patent US20070232577A1, “Synthetic pentacyclic triterpenoids and derivatives of betulinic acid and betulin” (Advanced Life Sciences, Inc., priority 2006, published 2007):
# Columns and labels:
# [1] = tested on: SK-MEL-2 (melanoma); test: MTS cell viability assay, SK-MEL-2; conditions: Homo sapiens, SK-MEL-2, 72 h, read-out: IC50 SK-MEL-2
# Method: (§2) Cells were plated, the evening before treatment, for each treatment on 96-well plates (1×10^4 cells/well) in 100 μL volume per well. Drug solutions were prepared by diluting each test compound in DSMO (10 mM) with the appropriate cell growth media for each individual cell line, or in “Universal Media” if several cell lines were to be assayed in parallel, immediately prior to cell treatment. Universal Media consisted of 5 mL sodium pyruvate (100×liquid stock, CellGro), 5 mL glucose (100×, 45% liquid stock, CellGro), 5 mL Penicillin/Streptomycin (100×liquid stock, CellGro), 10 mL sodium bicarbonate (50×liquid stock, CellGro), 25 mL Fetal Calf Serum, 1.25 mL insulin (4 mg/mL, Gibco) and 449 mL RPMI media with 2 mM glutamine for a total volume of 500 mL. Cells were treated by aspirating media from each well and adding 80 μL of each drug solution to the attached cells. All treatments were performed in triplicate. Growth media (80 μL) were added to 3 blank wells (no cells) to measure background from the growth media Growth media alone (no DMSO or test compond) was added to 2 wells containing cells to measure the baseline MTS activity and vehicle (DMSO) control solutions were also included to monitor basal toxicity from DMSO. Cells were incubated at 37° C. for 72 h. MTS reagent (per 96-well plate) were prepared by combining 2 mL of MTS working solution (Cell Titer AQueous Non-Radioactive Cell Proliferation Assay, Promega, cat#G1112), 100 μL of 0.92 mg/mL phenazine methosulfate/Dulbecco's PBS and 2.1 mL growth media. MTS reagent (40 μL) were added to each well and incubated at 37° C. for 1.5 to 4 h. Plates were gently shaken by hand until solution in each well appeared homogenous. Absorbances at 490 nm were measured on a plate reader at multiple time points following the addition of MTS reagent for each plate. Triplicate absorbance (490 nm) measurements were averaged following background (no cell) subtraction for each drug concentration. Percent Cell Viability was calculated for each drug concentration using the following equation: {[Absorbances(drug treated)]/[Absorbances(DMSO treated)]}×100%
# (§3) Percent viability (y-axis) was plotted against drug concentration (x-axis) and the resulting graph was used to determine the 50% inhibitory concentration (IC50) for each drug.
# [2] = tested on: HT-29 (colon carcinoma); test: MTS cell viability assay, HT-29; type: cell-based; conditions: Homo sapiens, 72 h
# Method: (§1) All treatments were performed in triplicate. […] Cells were incubated at 37° C. for 72 h.
# [3] = tested on: Daoy (glioblastoma); test: MTS cell viability assay, Daoy; conditions: for IC50: Homo sapiens, Daoy, 72 h, read-out: IC50 Daoy
# Method: as §2, §3
# [4] = tested on: A-375 (melanoma); test: MTS cell viability assay, A-375; type: cell-based; conditions: Homo sapiens, 72 h
# Method: as §1
# [5] = tested on: Daoy; test: Caspase activation assay, Daoy; type: cell-based
# Method: All treatments were performed in duplicate. […] Cells were incubated at 37° C. for 8 h. Caspase assay reagent (per 96-well plate) was prepared according to manufacturer's instructions (Homogeneous Caspases Assay, fluorometric, Roche) by combining 6.3 mL Incubation Buffer with 0.7 mL of Substrate Stock Solution. Caspase assay reagent (70 μL) was added to each well; the plate was gently shaken by hand for 15-20 seconds and incubated at 37° C. for 4 h.
# Fluorescent emission was measured at 535 nm on a plate reader using the “homogeneous caspase” program (excitation Wavelength=490 nm, emission wavelength=535 nm). Duplicate wells for each treatment were averaged following background (no cells) subtraction (emission 535 nm value from all experimental emission 535 nm values) for each drug concentration.
# DMSO treatment represented baseline caspase activation in the absence of drug. The percent changes in caspase activity were plotted on the y-axis for each drug treatment.
# [6] = tested on: LN-229 (glioblastoma); test: MTS cell viability assay, LN-229; type: cell-based; conditions: Homo sapiens, 72 h
# Method: as §1
# [7] = tested on: OVCAR-3 (ovarian carcinoma); test: MTS cell viability assay, OVCAR-3; type: cell-based; conditions: Homo sapiens, 72 h
# Method: as §1
# [8] = tested on: MCF-7 (breast carcinoma); test: MTS cell viability assay, MCF-7; type: cell-based; conditions: Homo sapiens, MCF7, 72 h
# Method: as §1
# [9] = tested on: SK-MEL-2, A-375, Daoy, LN-229, OVCAR-3, HT-29, MCF-7 cell lines; type: cell-based
# Method: as §1
# [10] = tested on: Daoy (glioblastoma)
# Method: as §2, §3
# [11] = tested on: SK-MEL-2 (melanoma)
# Method: as §2, §3
SMILES,IC50 [1],IC50 [2],IC50 [3],"selectivity of cytotoxicity for Daoy (in words) ([3]; MTS assay, Daoy versus other cell lines)",IC50 [4],"caspase activation in Daoy ([5]; Daoy, percent change versus DMSO)","selectivity of apoptosis activation, Daoy versus SK-MEL-2 (in words) ([5]; caspase assay, Daoy in preference to SK-MEL-2)",IC50 [6],IC50 [7],IC50 [8],cytotoxic potency across the cell line panel (in words) [9],improvement in cytotoxicity relative to betulinic acid 1 in Daoy [10],improvement in cytotoxicity relative to betulinic acid 1 in SK-MEL-2 [11]
"C=C(C)[C@@H]1CC[C@]2(COC(=O)CBr)CC[C@]3(C)[C@H](CC[C@@H]4[C@@]5(C)CC[C@H](O)C(C)(C)[C@@H]5CC[C@]43C)[C@@H]12 [Compound 13, ((1R,3aS,5aR,5bR,7aR,9S,11aR,11bR,13aR,13b R)-9-hydroxy-5a,5b,8,8,11a-pentamethyl-1-(prop-1-en-2-yl)icosahydro-1H-cyclopenta[a]chrysen-3a-yl)methyl 2-bromoacetate]",33 µg/mL,10 µg/mL,1.4 µg/mL,robust cytotoxic activity in Daoy but not in SK-MEL-2,29 µg/mL,approx. 200%,selectively activate apoptosis in Daoy in preference to SK-MEL-2,6 µg/mL,6 µg/mL,45 µg/mL,–,–,–
"C=C(C)[C@@H]1CC[C@]2(CNCCO)CC[C@]3(C)[C@H](CC[C@@H]4[C@@]5(C)CC[C@H](O)C(C)(C)[C@@H]5CC[C@]43C)[C@@H]12 [Compound 69, (1R,3aS,5aR,5bR,7aR,9S,11aR,11bR,13aR,13bR)-3a-((2-hydroxyethylamino)methyl)-5a,5b,8,8,11a-pentamethyl-1-(prop-1-en-2-yl)icosahydro-1H-cyclopenta[a]chrysen-9-ol]",5 µg/mL,2 µg/mL,< 2 µg/mL,–,4 µg/mL,–,–,–,< 10 µg/mL,< 10 µg/mL,potent across the entire cell line panel,greater than 5 fold,greater than 5 fold
